From patent publication US4604406A, “N-[6-methoxy-5-(perfluoroalkyl)-1-naphtholyl]-N-methylglycines and their thionaphthoyl analogs” (Ayerst, McKenna & Harrison, Inc., priority 1984, dated 1986)

Assays:
aldose reductase [1] = target: aldose reductase (Bos taurus, UniProt P16116); assay: % inhibition in vitro at 10^-7 M (aldose reductase inhibition); assay type: biochemical
[2] = tested on: dulcitol accumulation in the lens; assay: % lowering dulcitol accumulation in vivo, lens (L), galactosemic rats; design: species or system rat (Sprague-Dawley); conditions: 4 days
Excerpt: (§1) Such experiments are exemplified hereinbelow after the listing of the following general comments pertaining to these experiments:
(§2) (a) Four or more groups of six male rates, 50-70 g, Sprague-Dawley strain, were used. The first group, the control group, was fed a mixture of laboratory chow (rodent laboratory chow, Purina) and glucose at 20% (w/w %) concentration. The untreated galactosemic group was fed a similar diet in which galactose is substituted for glucose. The third group was fed a diet prepared by mixing a given amount of the test compound with the galactose containing diet. The concentration of galactose in the diet of the treated groups was the same as that for the untreated galactosemic group.
(§3) (b) After four days, the animals were killed by decapitation. The eyeballs were removed and punctured with a razor blade; the freed lenses were rolled gently on filter paper and weighed. The sciatic nerves were dissected as completely as possible and weighed. Both tissues were frozen and can be kept up to two weeks before being analyzed for dulcitol.
(§4) Only two minor reagent changes were made: (a) The rinsing mixture was an aqueous 5% (w/v) trichloroacetic acid solution and (b) the stock solution was prepared by dissolving 25 mg of dulcitol in 100 ml of an aqueous trichloroacetic acid solution. [N.B.: For each experiment the average value found in the tissue from rats fed the glucose diet was subtracted from the individual values found in the corresponding rat tissue to obtain the amount of polyol accumulated.]
(§5) The figures under L, N and D represent the percentage decrease of dulcitol accumulation in the tissues of the lens, sciatic nerve and diaphragm, respectively, for treated rats as compares to untreated rats.

[3] = tested on: dulcitol accumulation in the diaphragm; assay: % lowering dulcitol accumulation in vivo, diaphragm (D), galactosemic rats; design: species or system rat (Sprague-Dawley); conditions: 4 days
Excerpt: as §1, §2, §4, §5

dulcitol accumulation = assay: galactosemic rats, dulcitol accumulation, overall comparison in words; assay type: in vivo, rat (Sprague-Dawley)
Excerpt: The aldose reductase inhibiting property of the compounds of this invention and the utilization of the compounds in preventing, diminishing and alleviating diabetic complications are demonstrable in experiments using galactosemic rats, see Dvornik et at., cited above. Such experiments are exemplified hereinbelow after the listing of the following general comments pertaining to these experiments:
as §2, §3
as §4, with “(c) The polyol determination was performed by a modification of the procedure of M. Kraml and L. Cosyns, Clin. Biochem., 2,373 (1969). Only” for “Only”
as §5

aldose reductase [4] = target: aldose reductase (Homo sapiens, UniProt P15121); conditions: literature report; cited from earlier work
[5] = 24.5 mg/kg/day in galactose diet

COc1ccc2c(C(=S)N(C)CC(=O)O)cccc2c1C(F)(F)C(F)(F)C(F)(F)C(F)(F)C(F)(F)C(F)(F)F [Compound 5, N-[[6-Methoxy-5-(tridecafluorohexyl)-1-naphthalenyl]thioxomethyl]-N-methylglycine]
inhibition at 0.1 µM (aldose reductase [1]): 40%
% lowering dulcitol accumulation in vivo, L ([2]; 26 mg/kg/day in galactose diet): 0%
% lowering dulcitol accumulation in vivo, D ([3]; 26 mg/kg/day in galactose diet): 51%

COc1ccc2c(C(=S)N(C)CC(=O)O)cccc2c1C(F)(F)C(F)(F)F [Compound 1, N-[[6-methoxy-5-(pentafluoroethyl)-1-naphthalenyl]thioxomethyl]-N-methylglycine]
inhibition at 0.1 µM (aldose reductase [1]): 71%
% lowering dulcitol accumulation in vivo, L [2, 5]: 29%
% lowering dulcitol accumulation in vivo, D [3, 5]: 93%

COc1ccc2c(C(=S)N(C)CC(=O)O)cccc2c1C(F)(F)C(F)(F)C(F)(F)F [Compound 3, N-[[5-(heptafluoropropyl)-6-methoxy-1-naphthalenyl]thioxomethyl]-N-methylglycine]
inhibition at 0.1 µM (aldose reductase [1]): 75%
% lowering dulcitol accumulation in vivo, L ([2]; 5 mg/kg/day in galactose diet): 20%
activity compared with tolrestat at 4 mg/kg/day (dulcitol accumulation; 5 mg/kg/day): superior to tolrestat
activity compared with tolrestat at 11 mg/kg/day (dulcitol accumulation; 5 mg/kg/day): approaches the activity of tolrestat
activity relative to tolrestat (dulcitol accumulation; about twice as active as tolrestat): about twice
% lowering dulcitol accumulation in vivo, D ([3]; 5 mg/kg/day in galactose diet): 76%

COc1ccc2c(C(=O)N(C)CC(=O)O)cccc2c1C(F)(F)C(F)(F)C(F)(F)C(F)(F)C(F)(F)C(F)(F)F [Compound 6, N--[[5-(Tridecafluorohexyl)-6-methoxy-1-naphthalenyl]carbonyl]-N--methylglycine]
inhibition at 0.1 µM (aldose reductase [1]): 47%
% lowering dulcitol accumulation in vivo, L ([2]; 25 mg/kg/day in galactose diet): 0%
% lowering dulcitol accumulation in vivo, D ([3]; 25 mg/kg/day in galactose diet): 0%

COc1ccc2c(C(=O)N(C)CC(=O)O)cccc2c1C(F)(F)C(F)(F)F [Compound 2, N-[[6-Methoxy-5-(pentafluoroethyl)-1-naphthalenyl]carbonyl]-N-methylglycine]
inhibition at 0.1 µM (aldose reductase [1]): 56%
% lowering dulcitol accumulation in vivo, D ([3]; 29 mg/kg/day in galactose diet): 68%

COc1ccc2c(C(=O)N(C)CC(=O)O)cccc2c1C(F)(F)C(F)(F)C(F)(F)F [Compound 4, N-[[5-(heptafluoropropyl)-6-methoxy-1-naphthalenyl]carbonyl]-N-methylglycine]
inhibition at 0.1 µM (aldose reductase [1]): 63%
% lowering dulcitol accumulation in vivo, L ([2]; 10 mg/kg/day in galactose diet): 19%
activity compared with compound No. 7 (tolrestat) at 11 mg/kg/day (dulcitol accumulation; 10 mg/kg/day): comparable results
% lowering dulcitol accumulation in vivo, D ([3]; 10 mg/kg/day in galactose diet): 38%

COc1ccc2c(C(=S)N(C)CC(=O)O)cccc2c1C(F)(F)F [Compound 7, N--[[5-(Trifluoromethyl)-6-methoxy-1-naphthalenyl]thioxomethyl]-N--methylglycine, reference compound]
% lowering dulcitol accumulation in vivo, D ([3]; 11 mg/kg/day in galactose diet): 89%

O=C1NC(=O)[C@@]2(CCOc3ccc(F)cc32)N1 [sorbinol, (S)-6-Fluoro-2,3-dihydrospiro(4H-1-benzopyran-4,4'-imidazolidine)-2',5'-dione]
inhibition of aldose reductase (aldose reductase [4]): aldose reductase inhibiting properties

O=C(O)CN1C(=O)c2cccc3cccc(c23)C1=O [1,3-Dioxo-1H-benz[de]isoquinoline-2(3H)-acetic acid]
inhibition of aldose reductase (aldose reductase [4]): effective inhibitor of aldose reductase

COc1ccc2c(C(=O)N(C)CC(=O)O)cccc2c1C(F)(F)F [Compound 8, N--[ [5-(Trifluoromethyl)-6-methoxy-1-naphthalenyl]carbonyl]-N--methylglycine, reference compound]
inhibition at 0.1 µM (aldose reductase [1]): 57%
% lowering dulcitol accumulation in vivo, L ([2]; 10 mg/kg/day in galactose diet): 0%
% lowering dulcitol accumulation in vivo, D ([3]; 10 mg/kg/day in galactose diet): 20%
